These results are taken from paper PMC12021911, “Comparative evaluation of antimicrobial peptides: effect on formation, metabolic activity and viability of Klebsiella pneumoniae biofilms” (Frontiers in Microbiology, 2025).

Common to all, as to assay type: cell-based, Klebsiella pneumoniae
Assay [1] has as its system K. pneumoniae 42KC-108224-1. Kind of assay: fluorescence assay on mature biofilms (SYTO 9 / propidium iodide). On the procedure: (§1) The proportion of living and dead bacteria was determined using the fluorescence assay FilmTracer™ LIVE/DEAD biofilm viability kit (L10316, Life Technologies GmbH, Darmstadt, Germany). A bacterial count of 2 × 10^7 CFU/mL was inoculated in 50% BHI broth, 100 μL were added to a 96-well plate in duplicate and plates were incubated for 22 h at 37°C. Wells containing only BHI broth were used as blank. After incubation, the supernatant was discarded and plates were washed three times with sterile PBS. […] After incubation for 24 h at 37°C and washing three times with sterile PBS, 50 μL filter-sterilized water containing 0.15 μL each of SYTO™ 9 stain and propidium iodide stain was added to each well. Plates were incubated for 20 min at room temperature in the dark. The staining solution was discarded and the plates were washed three times with sterile PBS. The fluorescence intensity of the SYTO™ 9 stain (λex = 470 nm, λem = 500 nm) and the propidium iodide stain (λex = 490 nm, λem = 635 nm) were measured on a BioTek Synergy H1 microplate reader and corrected for the blank values. The percentage of fluorescence intensity was calculated based on the negative control. The SYTO™ 9/propidium iodide ratio was calculated. The experiment was conducted at least three times.

Assay [2] deals with K. pneumoniae IMT40061. The assay is described as above. To be noted: 24 h treatment of mature biofilm; at very high concentrations. On the procedure: as §1
The next assay has as its system K. pneumoniae 17349. Described as above. To be noted: 24 h treatment of mature biofilm; concentration not given.
The test system of assay [3] is K. pneumoniae 42KC-108224-1. Kind of assay: crystal violet assay, biofilm formation upon AMP treatment. The settings on record: 16 μg/mL; 22 h, 37°C, 50% BHI; mean, n ≥ 3. The procedure: (§2) To quantify biofilm formation, the crystal violet assay was done as described previously ([Sager et al., 2015]). Specifically, bacteria were grown in 10 mL BHI broth for 18 h at 37°C on a shaking platform (120 rpm). Subsequently 100 μL of a 1:100 dilution of this overnight culture in BHI was transferred to 96-well plates and incubated for 24 h at 37°C. Wells with BHI broth only were used as blank. Five replicates were investigated per strain. After incubation the suspension was discarded, plates were washed three times with tap water and air-dried. Subsequently, 100 μL of 1% crystal violet (T123.1, Th. Geyer GmbH & Co. KG, Renningen, Germany) in distilled water was added to each well and incubated for 15 min at room temperature before rinsing the plates four times with tap water and air-drying them again. One hundred μL of 99% ethanol were added to each well for 15 min at room temperature to dissolve the remaining crystal violet. Subsequently, the optical density at 540 nm (OD540) was measured using the BioTek Synergy H1 microplate reader to quantify biofilm mass remaining in the wells. OD values of the blank were subtracted from all the samples. Each experiment was conducted three times.
(§3) To determine the effect of the AMPs on biofilm formation of K. pneumoniae, a standardized bacterial suspension and serial dilutions of antimicrobial agents were incubated together as conducted for determination of planktonic growth. After incubation the crystal violet assay was performed as described above. The percentage of biofilm formation was calculated based on the growth control. The experiment was conducted at least three times.

Assay [4] has as its system K. pneumoniae IMT40061. The assay is described as above. The settings on record: 16 μg/mL; 22 h, 37°C, 50% BHI; mean, n ≥ 3. The procedure:
as §2, §3

For `CC[C@H]1OC(=O)[C@H](C)[C@@H](O[C@H]2C[C@@](C)(OC)[C@@H](O)[C@H](C)O2)[C@H](C)[C@@H](O[C@@H]2O[C@H](C)C[C@H](N(C)C)[C@H]2O)[C@](C)(O)C[C@@H](C)C(=O)[C@H](C)[C@@H](O)[C@]1(C)O` [Erythromycin], the “fluorescence intensity of propidium iodide in percent (dead cells)” value in assay [1] (64 μg/mL in PBS, 24 h on 22 h-old biofilm, mean, n ≥ 3) is 64%. In addition, in the assay on K. pneumoniae IMT40061 [2], the “living biofilm mass (SYTO™ 9)” value was determined as 69%.

“VRLIVAVRIWRR-NH2 [compound 1018, Synthetic antimicrobial peptide]”: the “viable biofilm mass (SYTO™ 9)” value in the assay on K. pneumoniae 17349 is recorded as “less than 30%”; in assay [1] (24 h treatment of mature biofilm, strongest reduction, concentration not given), “less than 30%”. Moreover, the results for the “biofilm mass (crystal violet), percentage of the growth control” value (in assay [3]; with K. pneumoniae IMT40061 [4]) were 54% and 61%, respectively.
